# According to patent publication US9150567B2, “Substituted tetrazol-1-yl-phenoxymethyl-thiazol-2-yl-piperidinyl-pyrimidine salts” (CYMABAY THERAPEUTICS, INC., priority 2009, dated 2015):
# Where a name gives a salt, the structure may show the parent alone. Read-outs that look alike come from different tables or passages of the source.
# Key:
# [1] = Systemic exposure and pharmacokinetics after single oral gavage dose of 200 mg/kg in fasted male SD rats; format: in vivo, Sprague Dawley (SD) rats; details: for Fold difference in plasma concentration compared to micronized free-base form: 30 hours post-dose; for Increase of systemic drug exposure in AUC0-t compared with micro MBX-2982 (free base): equivalent amounts
# Procedure: Two studies were conducted in order to compare the systemic exposure and pharmacokinetics (PK) of microcrystalline MBX-2982 and salt forms of MBX-2982 in fasted male Sprague Dawley (SD) rats following single oral gavage (PO) doses of 200 mg/kg. Four salt foms of MBX-2982 were investigate in the studies. The tested salts were HCl Form I, HCl salt Form II, mesylate salt and the tosylate salt.
# Preparation of samples was performed by solvent precipitation of plasma proteins in a 1 mL/well 96-well plate. Standards were prepared by spiking 10 μL of blank plasma with 10 μL of standard solution (acetonitrile containing MBX-2982 at 0.01, 0.02, 0.05, 0.1, 0.2, 0.5, 1, 2, 5, 10, 20, 50 and 100 μg/mL) and 300 μL of 0.1% formic acid in acetonitrile containing 0.2 μg/mL internal standard. Plasma samples were prepared by adding 10 μL of plasma sample, 10 μL of acetonitrile, and 300 μL of 0.2 μg/mL internal standard in 0.1% formic acid in acetonitrile. After addition of the organic solvents, all samples were vortexed briefly and centrifuged at 3600 rpm for 10 minutes. Some of the samples were diluted 1.3 to 2-fold with blank plasma. An aliquot of the supernatant (25 μL) was transfer to a 1 mL/well 96-well plate and mixed with 200 μL water/ACN (50/50, v/v) and injected into the HPLC.
# The suspensions for microcrystalline MBX-2982 (free base) and salt forms of MBX-2982 were prepared in 1% carboxymethylcellulose and 2% tween 80 in water (w/w/v).
# Five groups of animals were given microcrystalline and salt forms suspension doses of MBX-2982 orally at 200 mg/kg, respectively. Food was withheld the night before dose and returned nine hours after dosing. Blood samples were collected at 0.25, 0.5, 1, 2, 4, 6, 9, 24, 30 and 48 h post dose. MBX-2982 plasma concentration from these samples was analyzed by a non-validated high performance liquid chromatography in conjunction with mass spectrometry (LC-MS/MS) method.
# Plasma concentration-time data for individual animals were analyzed using WinNonlin software (Professional, version 5.0.1; Pharsight Corp.). A non-compartmental model (model 200) was used. Peak area ratios of MBX-2982 to internal standard and concentration were fitted to a quadratic equation (Calibration Curve) with 1/x weighting using a quadratic regression program in Analyst version 1.4.2 (Applied Biosystem Inc). The equations were then used to interpolate the concentrations of MBX-2982 in samples from peak area to internal standard ratio.
# The following pharmacokinetic parameters were calculated: • 1) Cmax: Maximum (peak) plasma concentration • 2) Tmax: Time at which Cmax occurred • 3) t1/2: Terminal phase half-life • 4) AUC0-t: Area under the concentration-time curve from time 0 to last measurable concentration • 5) AUC0-inf: Area under the concentration-time curve from time 0 extrapolated to infinity
# [2] = Moisture sorption of HCl Form I; format: physicochemical
# Text: A steady ˜0.9 wt % gain was observed between ˜5% and ˜95% RH. A complete desorption occurred upon decreasing relative humidity to ˜5% (˜0.9 wt % loss between ˜95% and ˜5% RH).
# [3] = Overnight / elevated RH stress of the crystalline salts; format: physicochemical; details: overnight / elevated relative humidity stress
# [4] = fasted male SD rats, single PO dose 200 mg/kg, mean ± SD
compound,measurement,setting,value
"CCc1cnc(N2CCC(c3nc(COc4ccc(-n5cnnn5)cc4)cs3)CC2)nc1.Cl [HCl Salt Form I, 5-ethyl-2-{4-[4-(4-tetrazol-1-yl-phenoxymethyl)-thiazol-2-yl]-piperidin-1-yl}-pyrimidine hydrochloride]",Mean plasma concentration of MBX-2982,"[1]; 0.5 h post dose, fasted male SD rats, PO 200 mg/kg, mean ± SD, hydrochloride",9790 ± 3730 ng/mL
same,Mean plasma concentration of MBX-2982,"[1]; 1 h post dose, fasted male SD rats, PO 200 mg/kg, mean ± SD, hydrochloride",15500 ± 3150 ng/mL
same,Mean plasma concentration of MBX-2982,"[1]; 2 h post dose, fasted male SD rats, PO 200 mg/kg, mean ± SD, hydrochloride",24200 ± 3350 ng/mL
same,Mean plasma concentration of MBX-2982,"[1]; 4 h post dose, fasted male SD rats, PO 200 mg/kg, mean ± SD, hydrochloride",31400 ± 7100 ng/mL
same,Mean plasma concentration of MBX-2982,"[1]; 6 h post dose, fasted male SD rats, PO 200 mg/kg, mean ± SD, hydrochloride",28100 ± 8460 ng/mL
same,Mean plasma concentration of MBX-2982,"[1]; 9 h post dose, fasted male SD rats, PO 200 mg/kg, mean ± SD, hydrochloride",23800 ± 6990 ng/mL
same,Mean plasma concentration of MBX-2982,"[1]; 24 h post dose, fasted male SD rats, PO 200 mg/kg, mean ± SD, hydrochloride",7430 ± 9630 ng/mL
same,Mean plasma concentration of MBX-2982,"[1]; 24 h post dose, fasted male SD rats, PO 200 mg/kg, mean ± SD, listed as HCl form I, hydrochloride",7300 ng/mL
same,Fold difference in plasma concentration compared to micronized free-base form,"[1]; male SD rats, PO 200 mg/kg, listed as HCl form I, hydrochloride",94 fold
same,Mean plasma concentration of MBX-2982,"[1]; 30 h post dose, fasted male SD rats, PO 200 mg/kg, mean ± SD, hydrochloride",7520 ± 12630 ng/mL
same,Mean plasma concentration of MBX-2982,"[1]; 48 h post dose, fasted male SD rats, PO 200 mg/kg, mean ± SD, hydrochloride",1080 ± 2310 ng/mL
same,Increase of systemic drug exposure in AUC0-t compared with micro MBX-2982 (free base),"[1]; male SD rats, PO 200 mg/kg, hydrochloride",2.4 fold
same,concentration at 30 h,"[1]; male, Sprague-Dawley, rat, plasma, po, 30 h post dose, male SD rats, PO 200 mg/kg, read-out: Plasma level at 30 hours post-dose",7.52 ng/mL
same,half-life,"[1]; male, Sprague-Dawley, rat, plasma, po, fasted male SD rats, single PO dose 200 mg/kg, mean ± SD",4.01 ± 1.68 h
same,AUC(0-t),"[1]; male, Sprague-Dawley, rat, plasma, po, fasted male SD rats, single PO dose 200 mg/kg, mean ± SD, read-out: AUC0-24",454 ± 98.4 µg·h/mL
same,AUC0-inf,"[1]; male, Sprague-Dawley, rat, plasma, po, fasted male SD rats, single PO dose 200 mg/kg, mean ± SD, read-out: AUC0-inf",536 ± 29.9 µg·h/mL
same,AUC(0-t),"[1]; male, Sprague-Dawley, rat, plasma, po, fasted male SD rats, single PO dose 200 mg/kg, mean ± SD, read-out: AUC0-t",571 ± 249 µg·h/mL
same,Cmax,"[1]; male, Sprague-Dawley, rat, plasma, po, fasted male SD rats, single PO dose 200 mg/kg, mean ± SD, read-out: Cmax",31200 ± 7410 ng/mL
same,Tmax,"[1]; male, Sprague-Dawley, rat, plasma, po, fasted male SD rats, single PO dose 200 mg/kg, mean ± SD, read-out: Tmax",7.25 ± 9.25 h
same,Weight gain on sorption,[2]; between ~5% and ~95% RH,~0.9 wt %
same,Weight loss on desorption,[2]; between ~95% and ~5% RH,~0.9 wt %
same,Weight loss upon equilibration,[2]; equilibration at ~5% RH,~0.3 wt %
"CCc1cnc(N2CCC(c3nc(COc4ccc(-n5cnnn5)cc4)cs3)CC2)nc1 [Tosylate Salt, 5-ethyl-2-{4-[4-(4-tetrazol-1-yl-phenoxymethyl)-thiazol-2-yl]-piperidin-1-yl}-pyrimidine]",Mean plasma concentration of MBX-2982,"[1]; 0.5 h post dose, fasted male SD rats, PO 200 mg/kg, mean ± SD",10100 ± 2450 ng/mL
same,Mean plasma concentration of MBX-2982,"[1]; 1 h post dose, fasted male SD rats, PO 200 mg/kg, mean ± SD",13000 ± 3330 ng/mL
same,Mean plasma concentration of MBX-2982,"[1]; 2 h post dose, fasted male SD rats, PO 200 mg/kg, mean ± SD",19700 ± 2550 ng/mL
same,Mean plasma concentration of MBX-2982,"[1]; 4 h post dose, fasted male SD rats, PO 200 mg/kg, mean ± SD",23600 ± 6900 ng/mL
same,Mean plasma concentration of MBX-2982,"[1]; 6 h post dose, fasted male SD rats, PO 200 mg/kg, mean ± SD",20300 ± 11200 ng/mL
same,Mean plasma concentration of MBX-2982,"[1]; 9 h post dose, fasted male SD rats, PO 200 mg/kg, mean ± SD",18600 ± 10550 ng/mL
same,Mean plasma concentration of MBX-2982,"[1]; 24 h post dose, fasted male SD rats, PO 200 mg/kg, mean ± SD",4200 ± 5510 ng/mL
same,Mean plasma concentration of MBX-2982,"[1]; 24 h post dose, fasted male SD rats, PO 200 mg/kg, mean ± SD, listed as tosylate",4200 ng/mL
same,Fold difference in plasma concentration compared to micronized free-base form,"[1]; male SD rats, PO 200 mg/kg",40 fold
same,Mean plasma concentration of MBX-2982,"[1]; 30 h post dose, fasted male SD rats, PO 200 mg/kg, mean ± SD",3180 ± 5880 ng/mL
same,Mean plasma concentration of MBX-2982,"[1]; 30 h post dose, fasted male SD rats, PO 200 mg/kg, mean ± SD, listed as tosylate",3180 ng/mL
same,Mean plasma concentration of MBX-2982,"[1]; 48 h post dose, fasted male SD rats, PO 200 mg/kg, mean ± SD",20 ± 10 ng/mL
same,AUC0-24,[1]; [4],342 ± 117 µg·h/mL
same,AUC0-inf,[1]; [4],393 ± 98.1 µg·h/mL
same,AUC(0-t),[1]; [4],392 ± 98.2 µg·h/mL
same,Cmax,[1]; [4],26100 ± 7980 ng/mL
same,Tmax,[1]; [4],4.00 ± 1.63 h
same,t1/2,[1]; [4],3.20 ± 0.88 h
same,Increase of systemic drug exposure in AUC0-t compared with micro MBX-2982 (free base),"[1]; male SD rats, PO 200 mg/kg",1.7 fold
same,Appearance of the material after RH stress,[3],remained a free flowing powder
